# Measured values published in ChEMBL document CHEMBL1124742 (J Med Chem, 1990).
# How the values were obtained:
# CHO-AA8 [1] = assay: In vitro cytotoxicity against transformed chinese hamster fibroblast line AA8; assay type: functional, cell-based; conditions: Cricetulus griseus
# Cricetulus griseus = species on record: Cricetulus griseus; assay: Hypersensitivity factor(HF) was determined from the ratio of IC50(AA8) / IC50(UV4); assay type: functional
# UV4 [2] = assay: In vitro cytotoxicity against transformed chinese hamster fibroblast line UV4.; assay type: functional, cell-based; conditions: Cricetulus griseus
# P388 [3] = assay: In vivo percentage increase in lifespan of drug treated tumor-bearing mice at a dose of 20 mg/kg; assay type: functional; conditions: Mus musculus
# P388 [4] = assay: Optimal dose of drug administered as a single dose in 0.1 or 0.2 mL of 30% v/v ethanol/water on day one after ip inoculation of 10e6 P388 leukemia cells; assay type: functional, Mus musculus
# [5] = Evaluated for the mustard reactivity by determining rate constant for hydrolysis of mustard in aqueous acetone (K H); assay type: ADME; conditions: buffer
# [6] = Evaluated for the mustard reactivity by determining rate constant for alkylation of 4-(4-nitrobenzyl)pyridine using NBP alkylation assay; assay type: ADME
# P388 [7] = assay: In vitro cytotoxicity against P388 murine leukemia; assay type: functional, cell-based; conditions: Mus musculus
# P388 [8] = assay: In vivo percentage increase in lifespan of drug treated tumor-bearing mice at a dose of 13.3 mg/kg; assay type: functional; conditions: Mus musculus
# P388 [9] = assay: In vivo percentage increase in lifespan of drug treated tumor-bearing mice at a dose of 45 mg/kg; assay type: functional; conditions: Mus musculus
# P388 [10] = assay: Tested for the in vitro cytotoxicity against P388 murine leukemia; assay type: cell-based; conditions: Mus musculus
# P388 [11] = assay: In vivo percentage increase in lifespan of drug treated tumor-bearing mice at a dose of 225 mg/kg; assay type: functional; conditions: Mus musculus
# CHO-AA8 [12] = assay: (§1) Tested for the in vitro cytotoxicity against transformed chinese hamster fibroblast line AA8; assay type: cell-based; conditions: Cricetulus griseus
# CHO-AA8 [13] = assay: as §1; assay type: functional, cell-based; conditions: Cricetulus griseus
# UV4 [14] = assay: Tested for the in vitro cytotoxicity against transformed chinese hamster fibroblast line UV4.; assay type: functional, cell-based; conditions: Cricetulus griseus
structure (smiles),measurement,setting,value
CCN(CC)CCCC(C)Nc1c2ccc(Cl)cc2nc2ccc(OC)cc12 (stereo not drawn) [QUINACRINE],IC50,CHO-AA8 [1],1700 nM
same,Ratio,Cricetulus griseus,11.5
same,IC50,UV4 [2],140 nM
ClCCN(CCCl)c1ccc(OCCCCCNc2c3ccccc3nc3ccccc23)cc1,ILS at 20 mg/kg,P388 [3],28%
same,IC50,CHO-AA8 [1],210 nM
same,Ratio,Cricetulus griseus,46
same,OD,P388 [4],20 mg/kg
same,K H,[5],100000 s⁻¹
same,K NBP,[6],115000 s⁻¹
same,IC50,P388 [7],40 nM
same,IC50,UV4 [2],5 nM
ClCCN(CCCl)c1ccc(CCCCCCNc2c3ccccc3nc3ccccc23)cc1,ILS at 13.3 mg/kg,P388 [8],22%
same,IC50,CHO-AA8 [1],530 nM
same,Ratio,Cricetulus griseus,36
same,OD,P388 [4],13.3 mg/kg
same,K H,[5],33900 s⁻¹
same,K NBP,[6],157000 s⁻¹
same,IC50,P388 [7],130 nM
same,IC50,UV4 [2],15 nM
O=C(CCCCNc1c2ccccc2nc2ccccc12)Nc1ccc(N(CCCl)CCCl)cc1,ILS at 45 mg/kg,P388 [9],58%
same,IC50,CHO-AA8 [1],900 nM
same,Ratio,Cricetulus griseus,11.3
same,OD,P388 [4],45 mg/kg
same,K H,[5],2900 s⁻¹
same,K NBP,[6],2500 s⁻¹
same,IC50,P388 [7],3200 nM
same,IC50,UV4 [2],80 nM
O=C(NCCCCNc1c2ccccc2nc2ccccc12)c1ccc(N(CCCl)CCCl)cc1,IC50,CHO-AA8 [1],3700 nM
same,Ratio,Cricetulus griseus,5.5
same,OD,P388 [4],20 mg/kg
same,K H,[5],25700 s⁻¹
same,K NBP,[6],171000 s⁻¹
same,IC50,P388 [7],510 nM
same,IC50,UV4 [2],673 nM
O=C(O)CCCc1ccc(N(CCCl)CCCl)cc1 [CHLORAMBUCIL],IC50,P388 [10],6.75 µM
same,ILS at 225 mg/kg,P388 [11],37%
same,Ratio,Cricetulus griseus,58
same,IC50,CHO-AA8 [12],26 µM
same,OD,P388 [4],225 mg/kg
same,IC50,UV4 [2],600 nM
O=C(CCCCCNc1c2ccccc2nc2ccccc12)c1ccc(N(CCCl)CCCl)cc1,IC50,CHO-AA8 [1],3510 nM
same,Ratio,Cricetulus griseus,5.9
same,OD,P388 [4],65 mg/kg
same,K H,[5],1100 s⁻¹
same,K NBP,[6],1800 s⁻¹
same,IC50,P388 [7],330 nM
same,IC50,UV4 [2],593 nM
O=S(=O)(CCCCCNc1c2ccccc2nc2ccccc12)c1ccc(N(CCCl)CCCl)cc1,IC50,CHO-AA8 [13],570 nM
same,IC50,UV4 [14],570 nM
same,ILS at 45 mg/kg,P388 [9],33%
same,Ratio,Cricetulus griseus,1
same,OD,P388 [4],45 mg/kg
same,K H,[5],2800 s⁻¹
same,K NBP,[6],500 s⁻¹
same,IC50,P388 [7],640 nM
ClCCN(CCCl)c1ccc(SCCCCCNc2c3ccccc3nc3ccccc23)cc1,ILS at 45 mg/kg,P388 [9],23%
same,IC50,CHO-AA8 [1],710 nM
same,Ratio,Cricetulus griseus,19
same,OD,P388 [4],45 mg/kg
same,K H,[5],5900 s⁻¹
same,K NBP,[6],16900 s⁻¹
same,IC50,P388 [7],360 nM
same,IC50,UV4 [2],37 nM
